Assay [1] deals with Estrogen receptor (Rattus norvegicus) (UniProt P06211+Q62986). As to the kind of experiment: Relative binding affinity for estrogen receptor. In kind it is protein assay.
Assay [2] deals with MCF7. Put plainly: Cytotoxic effect of growth inhibition of breast cancer MCF-7/ADR-RES cells. In kind it is functional. The conditions noted are these: Homo sapiens.
In assay [3] the test system is MDA-MB-231. Put plainly: Cytotoxic effect on growth inhibition of breast cancer MDA-MB-231/ATCC cells. In kind it is functional. The conditions noted are these: Homo sapiens.
Assay [4] has as its system PC-3. Put plainly: Cytotoxic effect on growth inhibition of prostate cancer PC-3 cells. The conditions noted are these: Homo sapiens. Type of assay: functional.
The test system of assay [5] is SN12C. Put plainly: Cytotoxic effect on growth inhibition of renal cancer SN12C cells. Type of assay: functional. The conditions noted are these: Homo sapiens.
Assay [6] concerns NCI-H322M. As to the kind of experiment: Cytotoxic effect on growth inhibition of nonsmall cell lung cancer NCI-H322M cells. In kind it is functional. The conditions noted are these: Homo sapiens.
The subject of assay [7] is U-251. Put plainly: Cytotoxic effect on growth inhibition of CNS cancer U251 cells. In kind it is functional. As to conditions: Homo sapiens.
Assay [8] addresses DNA topoisomerase 2-alpha (Homo sapiens, UniProt P11388). Put plainly: Inhibitory activity against topoisomerase II determined in catenation inhibition assay.
For assay [9], the system named is Hs-578T. Put plainly: Cytotoxic effect on growth inhibition of breast cancer HS 578T cells. In kind it is functional. The conditions noted are these: Homo sapiens.
The test system of assay [10] is IGROV-1. Put plainly: Cytotoxic effect on growth inhibition of ovarian cancer IGROVI cells. Type of assay: functional. As to conditions: Homo sapiens.
Assay [11] concerns HCT-116. Put plainly: Cytotoxic effect on growth inhibition of colon cancer HCT116 cells. In kind it is functional. The conditions noted are these: Homo sapiens.
The test system of assay [12] is MOLT-4. As to the kind of experiment: Cytotoxic effect on growth inhibition of leukemia MOLT-4 cells. In kind it is functional. The conditions noted are these: Homo sapiens.
Assay [13] relates to LOX IMVI. Put plainly: Cytotoxic effect on growth inhibition of melanoma LOX IMVI cells. In kind it is functional. The conditions noted are these: Homo sapiens.
Assay [14] deals with MCF7. Put plainly: Cytotoxic effect on growth inhibition of breast cancer MCF-7 cells. Type of assay: functional. As to conditions: Homo sapiens.
Assay [15] deals with MOLT-4. Put plainly: Cytotoxic effect on leukemia MOLT-4 cells. Type of assay: functional. As to conditions: Homo sapiens.
The test system of assay [16] is IGROV-1. Put plainly: Cytotoxic effect on ovarian cancer IGROVI cells. As to conditions: Homo sapiens. Type of assay: functional.
The test system of assay [17] is NCI-H322M. Put plainly: Cytotoxic effect on nonsmall cell lung cancer NCI-H322M cells. In kind it is functional. As to conditions: Homo sapiens.

The values that follow come from ChEMBL document CHEMBL1129613, “Design, synthesis, and biological evaluation of ellipticine-estradiol conjugates” (J Med Chem, 1996).

DNA topoisomerase 2-alpha, sequence (P11388 whole entry): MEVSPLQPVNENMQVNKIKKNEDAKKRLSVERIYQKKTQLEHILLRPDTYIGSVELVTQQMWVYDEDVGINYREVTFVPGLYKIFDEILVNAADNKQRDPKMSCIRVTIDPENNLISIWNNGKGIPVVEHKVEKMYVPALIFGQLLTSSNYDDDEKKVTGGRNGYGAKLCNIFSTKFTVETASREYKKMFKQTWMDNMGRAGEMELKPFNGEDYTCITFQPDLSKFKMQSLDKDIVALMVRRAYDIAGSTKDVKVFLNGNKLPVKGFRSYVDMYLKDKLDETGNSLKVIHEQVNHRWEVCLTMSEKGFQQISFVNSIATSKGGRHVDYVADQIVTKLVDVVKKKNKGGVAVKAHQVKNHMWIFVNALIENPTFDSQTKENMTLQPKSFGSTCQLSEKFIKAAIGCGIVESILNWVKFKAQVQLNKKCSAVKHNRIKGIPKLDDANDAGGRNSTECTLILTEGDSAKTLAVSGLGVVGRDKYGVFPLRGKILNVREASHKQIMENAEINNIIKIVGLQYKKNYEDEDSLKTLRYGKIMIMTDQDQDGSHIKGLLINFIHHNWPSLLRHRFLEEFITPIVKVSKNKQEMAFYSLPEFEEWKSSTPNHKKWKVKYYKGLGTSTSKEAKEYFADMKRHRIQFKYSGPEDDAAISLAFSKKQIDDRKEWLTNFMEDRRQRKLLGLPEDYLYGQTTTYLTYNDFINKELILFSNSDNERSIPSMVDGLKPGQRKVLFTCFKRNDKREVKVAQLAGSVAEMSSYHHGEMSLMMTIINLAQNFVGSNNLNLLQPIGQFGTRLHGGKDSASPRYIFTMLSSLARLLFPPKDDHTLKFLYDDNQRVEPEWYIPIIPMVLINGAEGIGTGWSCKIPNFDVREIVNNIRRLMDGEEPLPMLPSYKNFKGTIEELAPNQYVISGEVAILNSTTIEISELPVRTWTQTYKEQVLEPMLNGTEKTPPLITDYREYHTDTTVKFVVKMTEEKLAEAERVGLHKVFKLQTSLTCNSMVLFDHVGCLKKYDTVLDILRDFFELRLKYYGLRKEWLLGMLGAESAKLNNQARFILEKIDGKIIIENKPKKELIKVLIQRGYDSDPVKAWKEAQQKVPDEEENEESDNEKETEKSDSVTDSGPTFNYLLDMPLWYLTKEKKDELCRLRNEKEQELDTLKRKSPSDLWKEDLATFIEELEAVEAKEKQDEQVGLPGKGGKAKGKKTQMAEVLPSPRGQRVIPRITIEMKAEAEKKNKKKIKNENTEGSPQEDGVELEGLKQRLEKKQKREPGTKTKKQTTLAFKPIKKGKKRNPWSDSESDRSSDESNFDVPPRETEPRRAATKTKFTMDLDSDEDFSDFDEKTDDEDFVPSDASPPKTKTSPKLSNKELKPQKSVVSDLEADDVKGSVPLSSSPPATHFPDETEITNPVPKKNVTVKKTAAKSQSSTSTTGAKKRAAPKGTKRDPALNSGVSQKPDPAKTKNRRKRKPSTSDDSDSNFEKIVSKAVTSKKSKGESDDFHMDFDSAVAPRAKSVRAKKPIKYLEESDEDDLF

With `CC(C)(C)OC(=O)NCCCCCCNC(=O)C[C@]1(O)CC[C@H]2[C@@H]3CCc4cc(O)ccc4[C@H]3CC[C@@]21C`, the relative binding affinity (RBA) in [1] is 0.056.

On to `Cc1c2ccncc2c(C)c2c1[nH]c1ccc(C(=O)NCCCCCCNC(=O)C[C@]3(O)CC[C@H]4[C@@H]5CCc6cc(O)ccc6[C@H]5CC[C@@]43C)cc12`, for which the GI50 is > 100 µM in assay [2]; 34.7 µM in assay [3]; 74 µM in assay [4]; > 100 µM in assay [5]; 28 µM in assay [6]; 55.9 µM in [7]. Besides, the GI50 in assay [9] is > 100 µM; in assay [10], > 100 µM; in [11] it was 31.2 µM; in assay [12], 38.3 µM; in [13], 51.4 µM. In [1], this compound gave a relative binding affinity (RBA) of 0.303. Also, the IC50 in assay [8] was > 200 µM.

`C[C@]12CC[C@@H]3c4ccc(O)cc4CC[C@H]3[C@@H]1CC[C@@]2(O)CC(=O)NCCCCCCN` displayed a relative binding affinity (RBA) in assay [1] of 0.041.

On to `Cc1c2cnccc2c(C)c2c1c1ccccc1n2CC(=O)NCCCCCCNC(=O)C[C@]1(O)CC[C@H]2[C@@H]3CCc4cc(O)ccc4[C@H]3CC[C@@]21C`, for which the GI50 is > 100 µM in [2]; > 100 µM in [14]; > 100 µM in assay [3]; 57.1 µM in assay [4]; > 100 µM in assay [5]; 71.4 µM in [6]. The concentration for 50% growth inhibition (GI50) in assay [15] was 46.3 µM; in assay [7], 72.4 µM; in assay [16], > 100 µM; in assay [9], 46.8 µM; in assay [11] it was 39.9 µM; in assay [13] it was 50.9 µM. The IC50 in assay [8] is > 200 µM.

For the compound `Cc1c2c(c(C)c3c1[nH]c1ccccc13)CN(C(=O)NCCCCCCNC(=O)C[C@]1(O)CC[C@H]3[C@@H]4CCc5cc(O)ccc5[C@H]4CC[C@@]31C)C=C2`, the GI50 in [2] came out at 9.96 µM; in assay [14] it was 3.39 µM; in assay [3], 19.7 µM; in [4], 3.51 µM; in assay [5], 9.56 µM; in assay [17] it was 2.68 µM. The GI50 in [15] came out at 2.9 µM; in [7], 7.64 µM; in [9], 16.6 µM; in assay [10] it was 8.53 µM; in assay [11], 3.55 µM; in assay [13], 7.97 µM. In assay [1], this compound returned a relative binding affinity (RBA) of 0.132. In addition, the IC50 in assay [8] is 24.1 µM.

Consider `Cc1c2ccncc2c(C)c2c1[nH]c1ccccc12` [ELLIPTECINE], for which the GI50 in [2] was found to be 0.74 µM; in assay [14] it was 0.71 µM; in assay [5] it was 0.73 µM; in assay [6], 0.31 µM; in assay [15], 0.38 µM; in assay [7], 0.93 µM. The GI50 in assay [10] was 0.86 µM; in [11], 0.29 µM; in assay [13], 0.56 µM.

Turning to `C[C@]12CC[C@@H]3c4ccc(O)cc4CC[C@H]3[C@@H]1CC[C@@]2(O)CC(=O)O`, the relative binding affinity (RBA) in [1] stood at 0.039.

In [1], `CCOC(=O)C[C@]1(O)CC[C@H]2[C@@H]3CCc4cc(O)ccc4[C@H]3CC[C@@]21C` gave a relative binding affinity (RBA) of 3.66.
